Results published in US12070467B2, “Method of treating ciliated tissue using CSA micelles” (Brigham Young University, priority 2018, dated 2024).

What was measured:
[1] = test system: P. aeruginosa (ATCC 47085); assay: Kinetics of bactericidal activity (FIG. 4); assay type: cell-based, Pseudomonas aeruginosa; settings: detection limit two logs
Protocol: (§1) Cultures were incubated at 37° C. At 5, 15, 30, 60, and 120 min, aliquots were removed from each well and added to neutralizing buffer to ensure that no further antibacterial activity occurred. These samples were then serially diluted and plated on TSA or SDA. Cultures were incubated at 37° C. for 24 h or 48 h, and colonies were counted and recorded.
Detection limit was two logs.

[2] = test system: biofilms of S. aureus (ATCC 25923), P. aeruginosa (ATCC 47085), C. albicans (ATCC 90028), C. auris (CDC 384); assay: Antibiofilm colorimetric (XTT) assay, percent survival (FIG. 3); assay type: cell-based; settings: 24 h, p<0.05 relative to controls
Protocol: Biofilm formation by selected bacterial and fungal strains was quantified by measuring metabolic activity within biofilms using 2,3-bis-(2-methoxy-4-nitro-5-sulfophenyl)-2H-tetrazolium-5-carboxanilide (XTT). Biofilms were formed in 96-well plates and incubated for 48 h at 37° C. […] After incubation, the wells were carefully washed with PBS. A solution of 10 mM menadione in 100% acetone was added to an XTT solution (0.5 mg/mL) and mixed. An aliquot of the XTT/menadione solution (100 μL) was added to each well. Each plate was then wrapped in aluminum foil and incubated for 2-3 h at 37° C. To prepare to read the optical density, aliquots of the supernatant (70 μL) were removed from each well. Using a microtiter plate reader, colorimetric changes were measured at 490 nm. […] (control). To corroborate the antibiofilm data from counting bacterial and fungal colonies, a colorimetric assay was performed to quantify biofilms remaining on surfaces after treatment. Results were normalized to untreated controls. […] Antibiofilm results determined through colorimetric (XTT) assay represented as percent survival. […]

[3] = test system: C. albicans ATCC 90028 biofilm; assay: Minimum biofilm eradication concentration (MBEC); assay type: cell-based, Candida albicans; settings: 48 h biofilm, 24 h treatment
Protocol: (§2) Staphylococcus aureus (ATCC 25923) and Pseudomonas aeruginosa (ATCC 47085 (PA01)) were grown from fresh colonies in trypticase soy broth (TSB) and incubated overnight at 37° C. Fungal cultures, Candida albicans (ATCC 90028) and Candida auris (CDC 0382, 0384, 0387, and 0389), were grown overnight in sabouraud dextrose broth (SDB) or Roswell Park Memorial Institute medium (RPMI). Cultures of bacteria and fungi were centrifuged, and pellets were washed three times with phosphate buffered saline (PBS) and further resuspended in fresh PBS. Bacterial cultures were diluted in TSB and fungal cultures were diluted in SDB or RPMI to […] or 10^6 CFU/mL (optical density (OD) readings at 600 nm).
(§3) Inocula (10^6 CFU/mL) of bacterial and fungal strains (P. aeruginosa, S. aureus, C. albicans, and C. auris) were incubated at 37° C. for 48 h in 1 mL of TSB or SDB in 96-well plates. Following incubation, the growth medium was gently removed, and wells were washed three times with sterile PBS. […] Wells, including well edges, were scraped thoroughly with a plastic spatula. Well contents were removed in 1 mL of neutralizing broth (Dey-Engley, Sigma-Aldrich) and placed in a sonicating water bath (Fisher Scientific FS60, 42 kHz, 100 W, Pittsburgh, PA, USA) to disrupt biofilms. […] After 24 h or 48 h of incubation at 37° C., colonies were counted and MBECs were determined. […]

[4] = test system: S. aureus ATCC 25923 biofilm; assay: Minimum biofilm eradication concentration (MBEC); assay type: cell-based, Staphylococcus aureus; settings: 48 h biofilm, 24 h treatment
Protocol: as §2, §3

C. auris CDC 387 = assay: Minimum inhibitory concentration (MIC), broth microdilution; assay type: cell-based, Candida auris; settings: 37° C., 18-20 h
Protocol: as §2
(§4) Minimum inhibitory concentrations (MICs) were measured using the broth microdilution protocol described by the Clinical and Laboratory Standards Institute. […] Aliquots (100 μL) of a prepared inoculum (10^6 CFU/mL for bacteria and […] CFU/mL for fungi) were added, and plates were incubated at 37° C. for 18-20 h. Bacterial or fungal growth was visually observed to determine the MICs. Negative and positive controls were included for each set of MIC measurements. For studies with pluronic, the surfactant was added at 4% and 5% to the initial inocula in each experiment. Measurements were performed in triplicate for all susceptibility tests.

C. auris CDC 389 = assay: as above; assay type: cell-based, Candida auris; settings: 37° C., 18-20 h
Protocol: as §2, §4

C. auris CDC 384 = assay: as above; assay type: cell-based, Candida auris; settings: 37° C., 18-20 h
Protocol: as §2, §4

C. auris CDC 382 = assay: as above; assay type: cell-based, Candida auris; settings: 37° C., 18-20 h
Protocol: as §2, §4

S. aureus = assay: Kinetics of bactericidal activity; assay type: cell-based, Staphylococcus aureus; settings: CSA-131 100 μg/mL, pluronic 4%, data not shown
Protocol: as §1
FIG. 4 is a line graph comparing the kinetic antibacterial activity of CSA compositions with micelles compared to a control without CSA. Inocula of just over 10^6 CFU/mL were reduced to the detection limit within 15 min. […] Detection limit was two logs.

Question: With CCCCCCCCCCCCNCCC[C@@H](C)[C@H]1CC[C@H]2[C@@H]3[C@H](OCCCN)C[C@@H]4C[C@H](OCCCN)CC[C@]4(C)[C@H]3C[C@H](OCCCN)[C@]12C.Cl.Cl.Cl.Cl [CSA-131] as the molecule, how does the “Time for inocula of just over 106 CFU/mL to be reduced to the detection limit” value ([1]; CSA-131 100 μg/mL alone) read?
Answer: ≤ 15 min

Question: And the “Time for inocula of just over 106 CFU/mL to be reduced to the detection limit” value ([1]; CSA-131 100 μg/mL with pluronic (4%))?
Answer: ≤ 15 min

Question: And the “Biofilm remaining after treatment (XTT, percent survival vs untreated control)” value ([2]; CSA-131 100 μg/mL alone)?
Answer: Significant decreases in biofilm

Question: What about the “Biofilm remaining after treatment (XTT, percent survival vs untreated control)” value ([2]; CSA-131 100 μg/mL with pluronic, difference to CSA-131 alone not significant) of the same molecule?
Answer: Significant decreases in biofilm

Question: And the MBEC [3]?
Answer: 48 µg/mL

Question: And the MBEC [4]?
Answer: 100 µg/mL

Question: And the MIC (C. auris CDC 387)?
Answer: 0.5 mg/L

Question: What about the MIC (C. auris CDC 389) of the same molecule?
Answer: 0.5 mg/L

Question: And the MIC (C. auris CDC 384)?
Answer: 0.5 mg/L

Question: What about the MIC (C. auris CDC 382) of the same molecule?
Answer: 0.5 mg/L

Question: What about the “Difference in kinetic activity of the ceragenin alone and with pluronic” value (S. aureus) of the same molecule?
Answer: no significant differences
